Experimental data published in US20230257385A1, “SALT AND SOLID FORMS OF TABERNANTHALOG” (priority 2021, published 2023).
Structures can show the parent of a compound that is named as a salt. Where two headings read alike, the source gives them in different places.

What was measured:
[1] = cited from earlier work
[2] = Stability examination of supplied monofumarate material at 40° C./75% RH (Example 5, Experiment Reference 2); format: physicochemical
[3] = Thermocycling of the monofumarate salt (Experiment Reference 9); format: physicochemical; details: for XRPD (moist pellet): form (pattern) of wet pellet after thermocycling; for XRPD crystallinity (oven dried): tabernanthalog monofumarate salt thermocycled between 20° C. and peak T (75% of solvent b.p.), solvent, input and number of cycles per sample reference; for crystal form change following dry: moist pellet vs oven dried pellet after thermocycling, ✓ / x
Method: The tabernanthalog monofumarate salt (Pattern #1, 75 mg, 1 wt) was weighed out in to 4 separate vials and the corresponding solvents (750 μl, 10 vol) from Table 89 were charged.
The suspensions underwent constant amplitude thermocycling at +0.5° C./min up to 75% of the relevant solvent b.p. and −0.5° C./min down to 20° C. The thermocycle was repeated 5 times for 9-A (Experiment Reference 9-Sample Reference A) to 9-D (Experiment Reference 9-Sample Reference D) prior to working up the samples, analyzed the by XRPD (wet and dry). 9-E (Experiment Reference 9-Sample Reference E) and 9-F (Experiment Reference 9-Sample Reference F) were subjected to 10 cycles and 9-G (Experiment Reference 9-Sample Reference G) to 35 cycles.
Thermocycling in different solvents can promote the formation of alternative polymorphic forms. The tabernanthalog monofumarate salt (Pattern #1), was heated and cooled between 20° C. and 75% of the relevant solvent b.p. at 0.5° C./minute, for 5 consecutive cycles; a 10-minute dwell was incorporated at each inflection. Thermocycling is ripening technique, that encourages particle size enlargement and promotes the evolution of the API into a stable phase. […] The products were analyzed both wet and dry to determine if form changes had occurred, all products were consistent with previously encountered patterns, and by DSC none of the products were single phase.

[4] = Equilibrium humidity evaluation 75% RH/40° C., 10 days (Example 8, Experiment 6); format: physicochemical
Method: The experimental procedure that accompany this experiment is provided in Section G.ii.
All forms were maintained under constant equilibrium humidity (75% RH). XRPD, DSC, TGA, PLM and ^1H NMR analyses were performed on the absorbents at t=5 d and t=10 d, to confirm their physical fates and to determine the extent of residual solvent exchange or sequestration.
100 mg portions of Tabernanthalog salts ([…]) were placed in the relevant open vials. The powders were finely divided and distributed evenly over the base of the vial, such that equal material coverage across the panel was observed. These samples were then maintained 40° C. under 75% RH. The samples were sub-sampled at intervals of 5 and 10 days and analyzed by ^1H NMR, HPLC, XRPD, DSC, TGA and PLM, for evidence of phase change or chemical degradation.

[5] = Dynamic vapour sorption (DVS) of selected salts (Example 8); format: physicochemical
Method: DVS: The moisture sorption properties of the feed API were analyzed by DVS Intrinsic instrument (Surface Measurement System). Approximately 20-50 mg of API was weighed on an aluminum pan and loaded into the instrument equilibrated at 25° C. The sample was allowed to equilibrate under dry atmosphere (0% relative humidity) for 60 minutes before increasing the humidity from 0% to 30% at 5% step increment and from 30% to 90% at 10% step increment. A desorption cycle was also applied from 90% to 30% (10% step) and from 30% to 0% (5% decrement). A rate of change in mass per time unit (dm/dt) of 0.002%/min was set as the equilibrium parameter. Kinetic and isotherm graphs were calculated.

[6] = counter ion (acid), theoretical pKa value

Compound: O=S(=O)(O)CCS(=O)(=O)O [Ethane-1,2-disulfonic acid]
- pKa1 ([1]; counter ion of the salt screen): −2.10
- pKa2 ([1]; counter ion of the salt screen): −1.50

Compound: (−)-L-Malic acid
- pKa1 [1, 6]: 3.5
- pKa2 [1, 6]: 5.1
- pKa1 ([1]; counter ion of the salt screen): 3.50
- pKa2 ([1]; counter ion of the salt screen): 5.10

Compound: O=C[C@H](O)[C@@H](O)[C@H](O)[C@H](O)C(=O)O [D-Glucuronic acid]
- pKa1 [1, 6]: 3.2
- pKa1 ([1]; counter ion of the salt screen): 3.20

Compound: COc1ccc2c3c([nH]c2c1)CCN(C)CC3.O=C(O)/C=C/C(=O)O [Tabernanthalog fumarate (CAT8931)]
- HPLC (% area) ([2]; 2-A, open-necked, wide vial at 75% RH/40° C., t = 2 w): 97.26 % area
- HPLC (% area) ([2]; 2-A, open-necked, wide vial at 75% RH/40° C., t = 3 w): 97.01 % area
- HPLC (% area) ([2]; 2-A, open-necked, wide vial at 75% RH/40° C., t = 4 w): 97.98 % area
- HPLC (% area) ([2]; 2-A, open-necked, wide vial at 75% RH/40° C., t = 5 w): 97.34 % area
- HPLC (% area) ([2]; 2-B, sealed PK0056 electrostatic bags at 75% RH/40° C., t = 2 w): 97.44 % area
- HPLC (% area) ([2]; 2-B, sealed PK0056 electrostatic bags at 75% RH/40° C., t = 3 w): 97.02 % area
- HPLC (% area) ([2]; 2-B, sealed PK0056 electrostatic bags at 75% RH/40° C., t = 4 w): 98.38 % area
- HPLC (% area) ([2]; 2-B, sealed PK0056 electrostatic bags at 75% RH/40° C., t = 5 w): 97.54 % area
- HPLC (% area) ([2]; input batch, before exposure): 97.64 % area

Compound: CCS(=O)(=O)O [Ethane sulfonic acid]
- pKa1 [1, 6]: 2.05

Compound: COc1ccc2c3c([nH]c2c1)CCN(C)CC3.O=C(O)/C=C/C(=O)O [Pattern 9-E]
- XRPD (moist pellet) [3]: Pattern #2c
- XRPD crystallinity (oven dried) [3]: 77.1%

Compound: COc1ccc2c3c([nH]c2c1)CCN(C)CC3 [supplied material (Pattern #1), 8-methoxy-3-methyl-1H,2H,3H,4H,5H,6H-azepino[4,5-b]indole fumarate]
- physical and chemical stability ([2]; 75% RH at 40° C., open vial and double polyethene bagged, up to 5 w, XRPD, HPLC, TGA, DSC, fumarate): no evidence for hydrate formation, chemical degradation or disproportionation

Compound: COc1ccc2c3c([nH]c2c1)CCN(C)CC3.O=C(O)/C=C/C(=O)O [Pattern 9-C]
- XRPD (moist pellet) [3]: Pattern #8
- XRPD crystallinity (oven dried) [3]: 72.8%

Compound: O=C(O)[C@@H](O)[C@H](O)[C@H](O)[C@@H](O)C(=O)O [Galactaric acid]
- pKa1 [1, 6]: 3.1
- pKa2 [1, 6]: 3.6

Compound: COc1ccc2c3c([nH]c2c1)CCN(C)CC3.O=C(O)/C=C/C(=O)O [Pattern 9-B]
- XRPD (moist pellet) [3]: Pattern #1
- XRPD crystallinity (oven dried) [3]: 73.6%

Compound: Br [Hydrobromic acid]
- pKa1 ([1]; counter ion of the salt screen): −9.00

Compound: COc1ccc2c3c([nH]c2c1)CCN(C)CC3.O=C(O)/C=C/C(=O)O [Pattern 9-A]
- XRPD (moist pellet) [3]: Incoherent
- crystal form change following dry [3]: ✓
- XRPD crystallinity (oven dried) [3]: 82.1%

Compound: CCS(=O)(=O)O [Ethanesulfonic acid]
- pKa1 ([1]; counter ion of the salt screen): −2.10
- pKa2 ([1]; counter ion of the salt screen): −1.50

Compound: O=C(O)[C@H](O)[C@@H](O)[C@H](O)[C@H](O)CO [D-Gluconic acid]
- pKa1 [1, 6]: 3.8
- pKa1 ([1]; counter ion of the salt screen): 3.80

Compound: COc1ccc2c3c([nH]c2c1)CCN(C)CC3.O=C(O)C(O)C(O)C(=O)O [tabernanthalog tartrate salt]
- change in chemical purity (trended HPLC) ([4]; 75% RH/40° C., after 10 days): largest decrease in chemical purity
- water uptake / hydrate formation (TGA, DSC) ([4]; 75% RH/40° C., t=5 d and t=10 d): no significant water absorption
- powder diffraction pattern versus input (form stability) ([4]; 75% RH/40° C., t=5 days and t=10 days): no significant changes to the powder diffraction pattern
- Tabernanthalog RRT = 1.00 (trended HPLC data, chemical purity) ([4]; Tartrate salt, input before humidity exposure): 99.39
- DVS sorption/desorption isotherm ([5]; 0 to 90 to 0% RH, 25° C., dm/dt 0.002%/min): hygroscopic type of isotherm
- DVS 0 to 90 to 0% RH (dm/dt <0.002%), mass change ([5]; desorption, 0.0% RH): 0.02%
- DVS 0 to 90 to 0% RH (dm/dt <0.002%), mass change ([5]; desorption, 5.0% RH): 0.03%
- DVS 0 to 90 to 0% RH (dm/dt <0.002%), mass change ([5]; desorption, 10.0% RH): 0.04%
- DVS 0 to 90 to 0% RH (dm/dt <0.002%), mass change ([5]; desorption, 15.0% RH): 0.07%
- DVS 0 to 90 to 0% RH (dm/dt <0.002%), mass change ([5]; desorption, 20.0% RH): 0.08%
- DVS 0 to 90 to 0% RH (dm/dt <0.002%), mass change ([5]; desorption, 25.0% RH): 0.11%
- DVS 0 to 90 to 0% RH (dm/dt <0.002%), mass change ([5]; desorption, 30.0% RH): 0.13%
- DVS 0 to 90 to 0% RH (dm/dt <0.002%), mass change ([5]; desorption, 40.0% RH): 0.20%
- DVS 0 to 90 to 0% RH (dm/dt <0.002%), mass change ([5]; desorption, 50.0% RH): 0.27%
- DVS 0 to 90 to 0% RH (dm/dt <0.002%), mass change ([5]; desorption, 60.0% RH): 0.37%
- DVS 0 to 90 to 0% RH (dm/dt <0.002%), mass change ([5]; desorption, 70.0% RH): 0.51%
- DVS 0 to 90 to 0% RH (dm/dt <0.002%), mass change ([5]; desorption, 80.0% RH): 0.75%
- DVS 0 to 90 to 0% RH (dm/dt <0.002%), mass change ([5]; desorption, 90.0% RH): 1.34%
- DVS 0 to 90 to 0% RH (dm/dt <0.002%), mass change ([5]; sorption, 0.0% RH): 0.00%
- DVS 0 to 90 to 0% RH (dm/dt <0.002%), mass change ([5]; sorption, 5.0% RH): 0.01%
- DVS 0 to 90 to 0% RH (dm/dt <0.002%), mass change ([5]; sorption, 10.0% RH): 0.02%
- DVS 0 to 90 to 0% RH (dm/dt <0.002%), mass change ([5]; sorption, 15.0% RH): 0.04%
- DVS 0 to 90 to 0% RH (dm/dt <0.002%), mass change ([5]; sorption, 20.0% RH): 0.05%
- DVS 0 to 90 to 0% RH (dm/dt <0.002%), mass change ([5]; sorption, 25.0% RH): 0.07%
- DVS 0 to 90 to 0% RH (dm/dt <0.002%), mass change ([5]; sorption, 30.0% RH): 0.10%
- DVS 0 to 90 to 0% RH (dm/dt <0.002%), mass change ([5]; sorption, 40.0% RH): 0.16%
- DVS 0 to 90 to 0% RH (dm/dt <0.002%), mass change ([5]; sorption, 50.0% RH): 0.24%
- DVS 0 to 90 to 0% RH (dm/dt <0.002%), mass change ([5]; sorption, 60.0% RH): 0.34%
- DVS 0 to 90 to 0% RH (dm/dt <0.002%), mass change ([5]; sorption, 70.0% RH): 0.48%
- DVS 0 to 90 to 0% RH (dm/dt <0.002%), mass change ([5]; sorption, 80.0% RH): 0.72%
- DVS 0 to 90 to 0% RH (dm/dt <0.002%), mass change ([5]; sorption, 90.0% RH): 1.34%

Compound: COc1ccc2c3c([nH]c2c1)CCN(C)CC3.O=C(O)/C=C/C(=O)O [Pattern 9-F]
- XRPD (moist pellet) [3]: Pattern #2c
- crystal form change following dry [3]: ✓
- XRPD crystallinity (oven dried) [3]: 82.3%

Compound: O=C(O)CO [Glycolic acid]
- pKa1 [1, 6]: 3.3
- pKa1 ([1]; counter ion of the salt screen): 3.30

Compound: COc1ccc2c3c([nH]c2c1)CCN(C)CC3.O=C(O)c1ccccc1 [Sample 6-C1]
- Tabernanthalog RRT = 1.00 (trended HPLC data, chemical purity) ([4]; Benzoate salt, t = 5 d at 75% RH at 40° C.): 98.36

Compound: COc1ccc2c3c([nH]c2c1)CCN(C)CC3.O=C(O)C(O)C(O)C(=O)O [Sample 6-B2]
- Tabernanthalog RRT = 1.00 (trended HPLC data, chemical purity) ([4]; Tartrate salt, t = 10 d at 75% RH at 40° C.): 98.82

Compound: COc1ccc2c3c([nH]c2c1)CCN(C)CC3.O=C(O)/C=C/C(=O)O [Pattern 9-G]
- XRPD (moist pellet) [3]: Pattern #2c
- XRPD crystallinity (oven dried) [3]: 81.1%

Compound: COc1ccc2c3c([nH]c2c1)CCN(C)CC3.O=C(O)/C=C/C(=O)O [Sample 6-A2]
- Tabernanthalog RRT = 1.00 (trended HPLC data, chemical purity) ([4]; Fumarate salt, t = 10 d at 75% RH at 40° C.): 98.71

Compound: COc1ccc2c3c([nH]c2c1)CCN(C)CC3.O=C(O)/C=C/C(=O)O [Pattern 9-D]
- XRPD (moist pellet) [3]: Pattern #3
- XRPD crystallinity (oven dried) [3]: 74.5%
